{"source": "patent US8071314B2", "about": "(priority 2001, dated 2011)", "test_system": "N-methyl-D-aspartate (NMDA) receptor", "format": "cell-based, mouse", "note": "“And” between values parts separate entries of the source, which are not always exact repeats. Equal values may be shown once. Read-outs that look alike come from different tables or passages of the source."}
{"smiles": "NC(CCCP(=O)(O)O)C(=O)O", "note": "[D-APV, 2-amino-5-phosphonovalerate]", "values": [{"measurement": "LTP in the presence of the NMDA antagonist", "setting": "50 μM D-APV, all genotypes, hippocampal slices, 100 Hz tetanus, 100 μM picrotoxin in bath", "value": "completely abolished"}, {"measurement": "Posttetanus fEPSP slopes, averaged over 180 min (relative to baseline)", "setting": "n=3", "value": "107±14% and 97±9%"}, {"measurement": "Posttetanus fEPSP slopes, averaged over 180 min (relative to baseline)", "setting": "n=5", "value": "106±10", "unit": "%"}]}
